The text below walks through data of patent US20240182487A1, “MACROCYCLES AND THEIR USE” (BLOSSOMHILL THERAPEUTICS, INC., priority 2020, published 2024).

Format in all cases: biochemical
For assay [1], the target named is EGFR L858R mutant (Homo sapiens (Human), UniProt P00533, L858R). The assay can be described thus: HotSpot radiometric kinase assay, EGFR L858R. The note with it: radiometric filter-binding, 10 μM ATP.
Assay [2] has as its target EGFR L858R/C797S mutant (Homo sapiens (Human), UniProt P00533, C797S/L858R). Put plainly: HotSpot radiometric kinase assay, EGFR L858R/C797S. Conditions: radiometric filter-binding, 10 μM ATP.
Assay [3] addresses EGFR L858R/T790M mutant (Homo sapiens (Human), UniProt P00533, L858R/T790M). The assay can be described thus: HotSpot radiometric kinase assay, EGFR L858R/T790M. Conditions: radiometric filter-binding, 10 μM ATP; read-out: EGFR (L858R/T790M)_IC50.
Assay [4] deals with EGFR L858R/T790M/C797S mutant (Homo sapiens (Human), UniProt P00533, C797S/L858R/T790M). The assay can be described thus: HotSpot radiometric kinase assay, EGFR L858R/T790M/C797S. Conditions: radiometric filter-binding, 10 μM ATP; read-out: EGFR (L858R/T790M/C797S/)_IC50.
Assay [5] deals with EGFR (Δ746-750) (Homo sapiens (Human), UniProt P00533, DEL746-750). The assay can be described thus: HotSpot radiometric kinase assay, EGFR Δ746-750. The note with it: radiometric filter-binding, 10 μM ATP.
For assay [6], the target named is EGFR Δ746-750/C797S mutant (Homo sapiens (Human), UniProt P00533, C797S/DEL746-750). The assay can be described thus: HotSpot radiometric kinase assay, EGFR Δ746-750/C797S. Conditions: radiometric filter-binding, 10 μM ATP. The procedure: (§1) Biochemical Assays for Inhibition of Wild-Type and Mutant EGFRs
(§2) The inhibitory activities against EGFR WT, EGFR Δ752-759 mutant, EGFR Δ746-750/T790M mutant, EGFR Δ746-750/C797S mutant, EGFR Δ746-750/T790M/C797S mutant. […] Briefly, specific kinase/substrate pairs along with required cofactors were prepared in reaction buffer; 20 mM Hepes pH 7.5, 10 mM MgCl2, 1 mM EGTA, 0.02% Brij35, 0.02 mg/ml BSA, 0.1 mM Na3VO4, 2 mM DTT, 1% DMSO. Compounds were delivered into the reaction, followed ˜20 minutes later by addition of a mixture of ATP (Sigma, St. Louis MO) and ^33P ATP (Perkin Elmer, Waltham MA) to a final concentration of 10 μM. Reactions were carried out at room temperature for 120 min, followed by spotting of the reactions onto P81 ion exchange filter paper (Whatman Inc., Piscataway, NJ). Unbound phosphate was removed by extensive washing of filters in 0.75% phosphoric acid. […] IC50 values and curve fits were obtained using Prism (GraphPad Software).

Assay [7] addresses EGFR Δ746-750/T790M mutant (Homo sapiens (Human), UniProt P00533, DEL746-750/T790M). Put plainly: HotSpot radiometric kinase assay, EGFR Δ746-750/T790M. Conditions: radiometric filter-binding, 10 μM ATP. The procedure:
as §1, §2

Assay [8] addresses EGFR Δ746-750/T790M/C797S mutant (Homo sapiens (Human), UniProt P00533, C797S/DEL746-750/T790M). Put plainly: HotSpot radiometric kinase assay, EGFR Δ746-750/T790M/C797S. The note with it: radiometric filter-binding, 10 μM ATP. How it is done: as §1, §2
In assay [9] the target is EGFR WT (Homo sapiens (Human), UniProt P00533). The assay can be described thus: HotSpot radiometric kinase assay, EGFR WT. The note with it: radiometric filter-binding, 10 μM ATP. The procedure:
as §1, §2

EGFR L858R mutant, sequence (P00533 25-1210 L858R): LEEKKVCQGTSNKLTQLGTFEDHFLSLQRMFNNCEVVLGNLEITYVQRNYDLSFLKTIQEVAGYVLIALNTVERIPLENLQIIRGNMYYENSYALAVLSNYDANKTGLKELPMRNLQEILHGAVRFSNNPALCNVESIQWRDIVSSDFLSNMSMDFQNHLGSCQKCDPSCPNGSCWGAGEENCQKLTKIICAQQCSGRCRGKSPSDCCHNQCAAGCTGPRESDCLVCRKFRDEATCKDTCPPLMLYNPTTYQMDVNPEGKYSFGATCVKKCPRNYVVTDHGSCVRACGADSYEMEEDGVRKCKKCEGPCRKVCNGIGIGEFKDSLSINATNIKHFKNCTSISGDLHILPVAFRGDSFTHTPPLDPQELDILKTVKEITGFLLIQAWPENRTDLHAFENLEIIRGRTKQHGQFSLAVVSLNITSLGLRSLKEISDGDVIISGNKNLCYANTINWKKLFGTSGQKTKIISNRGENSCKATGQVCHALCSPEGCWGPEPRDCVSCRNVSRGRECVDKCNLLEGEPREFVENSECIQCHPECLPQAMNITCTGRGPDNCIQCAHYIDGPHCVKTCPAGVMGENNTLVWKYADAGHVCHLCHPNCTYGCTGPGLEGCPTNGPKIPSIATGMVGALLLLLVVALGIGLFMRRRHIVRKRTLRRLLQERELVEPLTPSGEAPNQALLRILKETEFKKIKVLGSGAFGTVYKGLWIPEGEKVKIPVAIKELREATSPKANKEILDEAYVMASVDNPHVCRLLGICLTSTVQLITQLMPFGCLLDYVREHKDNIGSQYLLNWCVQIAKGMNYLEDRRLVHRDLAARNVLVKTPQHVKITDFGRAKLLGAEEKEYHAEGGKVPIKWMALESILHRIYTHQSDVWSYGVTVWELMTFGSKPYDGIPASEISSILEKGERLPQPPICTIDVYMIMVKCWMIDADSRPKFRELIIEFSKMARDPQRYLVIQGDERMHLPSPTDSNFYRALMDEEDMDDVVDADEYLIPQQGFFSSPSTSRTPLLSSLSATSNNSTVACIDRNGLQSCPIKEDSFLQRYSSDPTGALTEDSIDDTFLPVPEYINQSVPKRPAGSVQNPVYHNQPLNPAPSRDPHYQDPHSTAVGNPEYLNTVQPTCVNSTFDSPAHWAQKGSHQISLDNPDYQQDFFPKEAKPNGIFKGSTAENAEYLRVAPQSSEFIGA
EGFR Δ746-750/T790M mutant, sequence (P00533 other isoform, or with tags, fused parts or gaps T790M/del 1-668/del 746-750 limits assumed): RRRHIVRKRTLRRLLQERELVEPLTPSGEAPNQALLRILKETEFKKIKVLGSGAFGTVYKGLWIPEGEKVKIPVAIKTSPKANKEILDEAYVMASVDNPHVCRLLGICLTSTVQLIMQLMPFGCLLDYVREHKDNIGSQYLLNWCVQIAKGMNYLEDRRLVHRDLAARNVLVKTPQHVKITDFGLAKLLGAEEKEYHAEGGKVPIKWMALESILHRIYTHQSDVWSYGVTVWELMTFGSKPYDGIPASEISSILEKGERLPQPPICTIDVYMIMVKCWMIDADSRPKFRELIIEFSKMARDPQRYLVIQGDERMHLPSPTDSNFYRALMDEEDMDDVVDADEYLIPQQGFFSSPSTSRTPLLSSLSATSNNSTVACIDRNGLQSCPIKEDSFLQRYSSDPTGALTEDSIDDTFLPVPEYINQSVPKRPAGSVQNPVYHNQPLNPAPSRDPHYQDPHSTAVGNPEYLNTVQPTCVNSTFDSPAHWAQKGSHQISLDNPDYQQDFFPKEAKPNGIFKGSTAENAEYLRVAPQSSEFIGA
EGFR L858R/C797S mutant, sequence (P00533 25-1210 C797S/L858R): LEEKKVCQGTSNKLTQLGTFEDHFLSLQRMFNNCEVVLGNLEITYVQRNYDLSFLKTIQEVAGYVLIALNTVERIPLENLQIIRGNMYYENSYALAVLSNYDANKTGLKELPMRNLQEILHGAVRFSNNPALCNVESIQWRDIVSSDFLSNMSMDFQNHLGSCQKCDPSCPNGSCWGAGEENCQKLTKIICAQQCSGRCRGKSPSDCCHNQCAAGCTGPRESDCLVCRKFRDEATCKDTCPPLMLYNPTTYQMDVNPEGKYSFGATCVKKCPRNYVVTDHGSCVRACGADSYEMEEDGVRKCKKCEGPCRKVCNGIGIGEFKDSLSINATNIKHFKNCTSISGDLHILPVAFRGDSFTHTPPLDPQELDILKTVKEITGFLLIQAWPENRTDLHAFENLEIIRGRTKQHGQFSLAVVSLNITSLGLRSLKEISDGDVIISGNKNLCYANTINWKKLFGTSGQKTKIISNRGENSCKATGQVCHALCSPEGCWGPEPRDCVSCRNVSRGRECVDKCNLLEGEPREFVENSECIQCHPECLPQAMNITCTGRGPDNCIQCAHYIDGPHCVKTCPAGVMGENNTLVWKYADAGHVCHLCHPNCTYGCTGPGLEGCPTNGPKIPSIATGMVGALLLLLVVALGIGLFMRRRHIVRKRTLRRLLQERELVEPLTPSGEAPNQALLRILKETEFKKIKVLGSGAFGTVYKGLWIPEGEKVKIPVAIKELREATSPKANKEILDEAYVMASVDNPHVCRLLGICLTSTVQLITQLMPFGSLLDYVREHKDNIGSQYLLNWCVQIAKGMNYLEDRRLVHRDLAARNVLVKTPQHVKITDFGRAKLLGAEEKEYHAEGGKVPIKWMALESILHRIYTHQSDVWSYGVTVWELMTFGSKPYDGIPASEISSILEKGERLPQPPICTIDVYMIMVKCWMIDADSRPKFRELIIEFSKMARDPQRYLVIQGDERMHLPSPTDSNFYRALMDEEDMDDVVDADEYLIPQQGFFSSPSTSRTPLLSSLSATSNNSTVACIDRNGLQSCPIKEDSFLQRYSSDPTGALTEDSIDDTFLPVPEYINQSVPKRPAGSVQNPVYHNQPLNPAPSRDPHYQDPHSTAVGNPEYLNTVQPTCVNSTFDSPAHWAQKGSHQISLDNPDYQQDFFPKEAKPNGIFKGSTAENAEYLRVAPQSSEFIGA
EGFR Δ746-750/C797S mutant, sequence (P00533 other isoform, or with tags, fused parts or gaps C797S/del 1-668/del 746-750 limits assumed): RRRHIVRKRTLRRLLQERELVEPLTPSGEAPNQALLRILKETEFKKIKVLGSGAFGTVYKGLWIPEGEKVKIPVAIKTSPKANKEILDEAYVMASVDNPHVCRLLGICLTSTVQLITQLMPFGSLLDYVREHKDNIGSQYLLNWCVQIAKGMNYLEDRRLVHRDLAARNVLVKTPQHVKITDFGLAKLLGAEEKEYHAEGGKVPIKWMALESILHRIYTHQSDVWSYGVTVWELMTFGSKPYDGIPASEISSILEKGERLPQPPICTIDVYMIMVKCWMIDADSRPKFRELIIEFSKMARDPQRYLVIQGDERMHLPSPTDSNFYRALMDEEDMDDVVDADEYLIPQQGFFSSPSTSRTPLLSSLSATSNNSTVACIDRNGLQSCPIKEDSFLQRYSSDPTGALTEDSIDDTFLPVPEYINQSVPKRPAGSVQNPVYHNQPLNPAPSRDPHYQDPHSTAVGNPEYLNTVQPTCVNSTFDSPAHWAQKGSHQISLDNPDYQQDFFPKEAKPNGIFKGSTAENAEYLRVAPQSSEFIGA
EGFR L858R/T790M/C797S mutant, sequence (P00533 25-1210 T790M/C797S/L858R): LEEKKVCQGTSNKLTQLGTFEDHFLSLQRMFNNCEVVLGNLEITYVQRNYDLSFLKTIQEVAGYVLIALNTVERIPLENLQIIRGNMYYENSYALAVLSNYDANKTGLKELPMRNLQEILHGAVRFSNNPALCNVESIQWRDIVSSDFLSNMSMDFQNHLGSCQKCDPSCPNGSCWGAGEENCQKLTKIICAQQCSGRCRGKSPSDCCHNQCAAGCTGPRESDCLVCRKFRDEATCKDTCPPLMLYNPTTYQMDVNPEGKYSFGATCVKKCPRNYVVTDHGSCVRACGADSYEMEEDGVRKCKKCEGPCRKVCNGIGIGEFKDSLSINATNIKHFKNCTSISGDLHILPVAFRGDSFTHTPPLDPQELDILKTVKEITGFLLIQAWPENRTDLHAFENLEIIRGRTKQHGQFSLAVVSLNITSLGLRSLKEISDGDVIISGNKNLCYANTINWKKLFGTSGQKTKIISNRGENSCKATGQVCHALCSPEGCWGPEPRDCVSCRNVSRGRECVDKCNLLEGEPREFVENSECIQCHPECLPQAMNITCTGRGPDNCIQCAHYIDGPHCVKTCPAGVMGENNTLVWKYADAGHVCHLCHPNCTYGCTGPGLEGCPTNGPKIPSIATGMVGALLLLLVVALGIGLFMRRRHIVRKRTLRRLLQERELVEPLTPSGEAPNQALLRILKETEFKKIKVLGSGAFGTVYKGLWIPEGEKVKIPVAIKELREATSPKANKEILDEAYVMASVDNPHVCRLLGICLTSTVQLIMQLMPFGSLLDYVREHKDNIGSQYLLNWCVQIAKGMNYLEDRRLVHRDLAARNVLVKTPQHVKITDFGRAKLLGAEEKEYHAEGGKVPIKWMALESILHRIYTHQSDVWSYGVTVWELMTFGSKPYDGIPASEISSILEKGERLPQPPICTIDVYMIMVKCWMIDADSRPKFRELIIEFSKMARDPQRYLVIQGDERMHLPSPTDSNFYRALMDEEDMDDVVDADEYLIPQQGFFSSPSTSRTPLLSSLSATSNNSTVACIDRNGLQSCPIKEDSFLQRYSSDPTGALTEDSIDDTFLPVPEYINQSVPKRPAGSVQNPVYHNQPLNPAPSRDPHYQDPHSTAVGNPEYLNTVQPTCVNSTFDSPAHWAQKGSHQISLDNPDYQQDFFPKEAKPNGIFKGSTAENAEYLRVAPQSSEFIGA

For `Cn1ncc2c1OCCCOc1ccccc1/C=C/c1n[nH]c3ccc-2nc13` [Cpd. 2, (18E)-8-methyl-2,8,11,12-tetrahydro-10H-3,5-ethenodipyrazolo[3,4-f:4′,3′-j][1,5,9]benzodioxazacyclopentadecine], the IC50 came out at 258 nM in assay [1]; 595 nM in assay [2]; 301 nM in assay [3]; 692 nM in assay [4]; 49.1 nM in assay [5]; 16.2 nM in assay [6]. The IC50 in assay [7] stood at 22.9 nM; in assay [8], 29.3 nM; in assay [9], 554 nM.
Consider `Cn1ncc2c1OCCCOc1ccccc1/C=C/c1n[nH]c3ccc-2cc13` [Cpd. 3, (11E)-1-methyl-19,20-dihydro-1H,8H,18H-10,7,4-(ethan[1]yl[1,2]diylidene)pyrazolo[3,4-f][1,5,12,13]benzodioxadiazacyclooctadecine], for which the IC50 in [1] is 374 nM; in assay [2], 1070 nM; in assay [3], 138 nM; in assay [4], 278 nM; in assay [5], 79 nM; in [6], 24.4 nM. Moreover, the IC50 in assay [7] is 13.2 nM; in [8], 10.2 nM; in assay [9] it was 1050 nM.
`Cn1ncc2c1OCCCOc1ccccc1/C=C/c1n[nH]c3cnc-2cc13` [Cpd. 1, (11E)-1-methyl-19,20-dihydro-1H,8H,18H-10,7,4-(ethan[1]yl[1,2]diylidene)pyrazolo[3,4-f][1,5,9,12,13]benzodioxatriazacyclooctadecine]: the IC50 in [1] worked out at 29.1 nM; in assay [2], 55 nM; in [3], 4.1 nM; in [4], 15 nM; in assay [5], 6.8 nM; in assay [6], 4.8 nM. Also, the IC50 is 2.1 nM in assay [7], 0.22 nM in [8] and 46.4 nM in [9].
